Results taken from PMC11678245, “The Molecular Basis of the Intrinsic and Acquired Resistance to Azole Antifungals in Aspergillus fumigatus” (Journal of Fungi, 2024).
Where “and” joins values, the source holds several entries; their conditions need not be identical. Equal values may be shown once. Read-outs that look alike come from different tables or passages of the source. Numbered stars: 1 amine (or outer) side, 2 acyl side, 3 side chain; on linkers, the order of the positions; unused ones are H or OH. Bridge positions count the residues as written; N and C are the ends. Square brackets hold non-standard residues; d marks the D form. Peptide text beside a SMILES is read from it. * marks the point of attachment. hTyr(3S-OH,4S-OH,3'-OSO3H) = N[C@H](C(=O)O)[C@H](O)[C@@H](O)c1ccc(O)c(OS(=O)(=O)O)c1; Orn(4R-OH,5R-OH) = O=C([C@H](C[C@@H](O)[C@@H](O)N[*:3])N[*:1])[*:2]; Pro(3S-OH,4S-Me) = C[C@H]1CN[C@H](C(=O)O)[C@H]1O; X1 = CCCCCOc1ccc(-c2cc(-c3ccc(C(=O)*)cc3)no2)cc1; Gln(3R-OH) = NC(=O)C[C@@H](O)[C@H](N)C(=O)O; Hyp = O=C(O)[C@@H]1C[C@@H](O)CN1

How the values were obtained:
[1] = system: S. cerevisiae strain ADΔΔ (native ScCYP51); experiment: MIC80 susceptibility, host strain ADΔΔ; assay type: cell-based; conditions: Saccharomyces cerevisiae, Table 2, SD pH 6.8, 48 h, 30 °C
Procedure: (§1) The susceptibilities of S. cerevisiae strains to antifungal drugs were determined as minimum growth inhibitory concentration (MIC) values in 200 μL SD pH 6.8 [24]. Serial 2-fold dilutions of 100 μL of azole or control drugs in SD pH 6.8 were prepared in a 96-well microtiter plate. A portion of a 2 mL SD pH 6.8 overnight culture of the test strain was inoculated into 3 mL fresh SD pH 6.8 and incubated for 4 to 6 h at 30 °C to generate logarithmic-phase cells. These cells were then diluted with fresh SD pH 6.8 to OD600nm = 0.01 (3 × 10^4 CFU), and 100 μL of this cell suspension was added to microtiter plate wells. Cell growth after 48 h incubation at 30 °C with shaking at 200 rpm was determined at 600 nm using a BioTek™ Synergy™ 2 multi-Mode microplate reader controlled using Gen5™ Data Analysis Software version 3.16.10 (BioTek Instruments, Winooski, VT, USA). MIC80 values (80% growth inhibition in the presence of the test drug compared with the untreated control) for each yeast construct were determined as technical triplicates repeated three times for three separate clones.

[2] = system: S. cerevisiae strain A (AfCyp51A-6×His, native ScCyp51 retained); experiment: MIC80 susceptibility, strain A; assay type: cell-based; conditions: Saccharomyces cerevisiae, Table 2, SD pH 6.8, 48 h, 30 °C
Procedure: as §1

[3] = system: S. cerevisiae strain AR (AfCyp51A-6×His, AfCprA2-6×His); experiment: MIC80 susceptibility, strain AR; assay type: cell-based, Saccharomyces cerevisiae
Procedure: as §1

[4] = system: S. cerevisiae strain ARE Y121F (AfCyp51A-6×His Y121F, AfCprA2, AfErg6-FLAG); experiment: MIC80 susceptibility, strain Y121F; assay type: cell-based, Saccharomyces cerevisiae; conditions: Saccharomyces cerevisiae, ± SD, read-out: MIC80
Procedure: as §1

[5] = system: S. cerevisiae strain ARE T289A (AfCyp51A-6×His T289A, AfCprA2, AfErg6-FLAG); experiment: MIC80 susceptibility, strain T289A; assay type: cell-based, Saccharomyces cerevisiae; conditions: for MIC80: Saccharomyces cerevisiae, ± SD, read-out: MIC80
Procedure: as §1

[6] = system: S. cerevisiae strain ARE Y121F T289A (AfCyp51A-6×His Y121F T289A, AfCprA2, AfErg6-FLAG); experiment: MIC80 susceptibility, strain Y121F T289A; assay type: cell-based, Saccharomyces cerevisiae; conditions: Saccharomyces cerevisiae, ± SD, read-out: MIC80
Procedure: as §1

[7] = system: S. cerevisiae strain ARE I301T (AfCyp51A-6×His I301T, AfCprA2, AfErg6-FLAG); experiment: MIC80 susceptibility, strain I301T; assay type: cell-based, Saccharomyces cerevisiae; conditions: Saccharomyces cerevisiae, ± SD, read-out: MIC80
Procedure: as §1

[8] = system: S. cerevisiae strain B (AfCyp51B-6×His, native ScCyp51 retained); experiment: MIC80 susceptibility, strain B; assay type: cell-based; conditions: Saccharomyces cerevisiae, Table 2, SD pH 6.8, 48 h, 30 °C
Procedure: as §1

[9] = system: S. cerevisiae strain BR (AfCyp51B-6×His, AfCprA2-6×His); experiment: MIC80 susceptibility, strain BR; assay type: cell-based; conditions: Saccharomyces cerevisiae; Table 2; strain BR; SD pH 6.8, 48 h, 30 °C; ± SD; read-out: MIC80
Procedure: as §1

[10] = system: S. cerevisiae strain BRE (AfCyp51B-6×His, AfCprA2, AfErg6-FLAG); experiment: MIC80 susceptibility, strain BRE; assay type: cell-based, Saccharomyces cerevisiae; conditions: Saccharomyces cerevisiae, strain BRE, ± SD, read-out: MIC80
Procedure: as §1

[11] = system: S. cerevisiae strain ADLS overexpressing ScCYP51-6×His; experiment: MIC80 susceptibility, strain ADLS; assay type: cell-based, Saccharomyces cerevisiae; conditions: Saccharomyces cerevisiae; Table 2; strain ADLS; SD pH 6.8, 48 h, 30 °C; ± SD; read-out: MIC80
Procedure: as §1

[12] = system: S. cerevisiae strain ARE (AfCyp51A-6×His, AfCprA2, AfErg6-FLAG); experiment: MIC80 susceptibility, strain ARE; assay type: cell-based, Saccharomyces cerevisiae; conditions: Saccharomyces cerevisiae; Table 3; strain ARE; ± SD; read-out: MIC80
Procedure: as §1

AfCYP51A-6×His = AfCYP51A-6×His (Aspergillus fumigatus, UniProt Q4WNT5); experiment: Type II binding of azole drugs (difference spectra); conditions: AfCYP51A
Chain of AfCYP51A-6×His (Q4WNT5 whole entry): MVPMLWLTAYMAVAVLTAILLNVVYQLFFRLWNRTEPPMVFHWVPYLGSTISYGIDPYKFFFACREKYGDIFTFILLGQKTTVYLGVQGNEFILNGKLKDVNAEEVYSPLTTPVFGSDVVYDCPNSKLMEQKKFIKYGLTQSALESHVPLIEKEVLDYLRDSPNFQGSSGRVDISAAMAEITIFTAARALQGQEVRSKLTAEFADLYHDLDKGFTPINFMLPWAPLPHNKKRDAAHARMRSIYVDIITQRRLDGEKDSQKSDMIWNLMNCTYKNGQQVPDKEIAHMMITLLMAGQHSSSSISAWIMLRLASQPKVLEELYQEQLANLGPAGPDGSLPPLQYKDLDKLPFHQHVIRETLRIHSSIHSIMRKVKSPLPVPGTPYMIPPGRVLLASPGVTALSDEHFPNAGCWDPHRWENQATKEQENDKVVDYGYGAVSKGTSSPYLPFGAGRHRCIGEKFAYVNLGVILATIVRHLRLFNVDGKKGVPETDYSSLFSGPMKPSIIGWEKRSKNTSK
Procedure: (§2) The concentration of AfCYP51A and AfCYP51B, purified using Ni-NTA affinity chromatography and used for the spectrophotometric type I and type II binding assays, was calculated using an extinction co-efficient of λ417nm = 117 mM^−1 cm^−1 applied to the absolute absorption spectrum of the preparations. In addition, the amount of “active” cytochrome P450 enzyme was determined using the carbon monoxide (CO) binding spectra of these preparations.
(§3) Type II binding difference spectra were obtained using 1 μM of affinity-purified CYP51 enzymes. VCZ, PCZ, VT-1161, DCZ, and MCF working solutions were prepared in DMSO, while FLC was prepared in Milli-Q water. Azole drugs were added to the sample cuvette, and corresponding amounts of DMSO or Milli-Q water were added to the reference cuvette. Drug binding curves were plotted using the difference spectrum peak and trough detected in the range of 410–425 nm. Dissociation constants (Kd) were determined by nonlinear regression (Levenberg–Marquardt algorithm) of the difference in absorbance between the peak and trough against the azole concentration using a rearrangement of the Morrison equation or the Hill equation [7]. GraphPad Prism 9.2.0 software was used to identify the best fit for the data.

AfCYP51B-6×His = target: T1, AfCYP51B-6×His (Aspergillus fumigatus, UniProt E9QY26); experiment: as above
T1 sequence (E9QY26 1-524): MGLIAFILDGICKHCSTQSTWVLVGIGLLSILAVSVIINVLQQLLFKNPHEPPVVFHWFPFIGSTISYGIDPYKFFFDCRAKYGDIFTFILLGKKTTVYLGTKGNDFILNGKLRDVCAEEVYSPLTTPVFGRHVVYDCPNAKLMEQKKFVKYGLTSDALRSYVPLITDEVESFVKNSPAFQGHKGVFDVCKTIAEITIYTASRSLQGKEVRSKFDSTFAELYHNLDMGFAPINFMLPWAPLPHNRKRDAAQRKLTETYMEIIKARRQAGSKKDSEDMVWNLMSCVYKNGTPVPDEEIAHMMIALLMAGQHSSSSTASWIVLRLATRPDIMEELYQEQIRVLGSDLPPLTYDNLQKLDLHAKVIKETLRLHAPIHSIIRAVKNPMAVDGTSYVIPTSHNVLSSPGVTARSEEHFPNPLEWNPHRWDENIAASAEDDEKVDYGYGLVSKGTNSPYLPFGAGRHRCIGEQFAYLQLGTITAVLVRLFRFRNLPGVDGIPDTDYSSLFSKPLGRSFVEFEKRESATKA
Procedure: as §2, §3

[13] = Table 2, strain Y121F, SD pH 6.8, 48 h, 30 °C
[14] = 48 h, pH 6.8, Table 2, strain T289A, SD pH 6.8, 48 h, 30 °C
[15] = Table 2, strain Y121F T289A, SD pH 6.8, 48 h, 30 °C
[16] = 48 h, pH 6.8, Table 2, strain I301T, SD pH 6.8, 48 h, 30 °C
[17] = Table 2, SD pH 6.8, 48 h, 30 °C
[18] = type II binding, 1 μM enzyme, Hill equation

Molecule `CCCCCOc1ccc(-c2cc(-c3ccc(C(=O)N[C@H]4C[C@@H](O)[C@@H](O)NC(=O)[C@@H]5[C@@H](O)[C@@H](C)CN5C(=O)[C@H]([C@H](O)CC(N)=O)NC(=O)[C@H]([C@H](O)[C@@H](O)c5ccc(O)c(OS(=O)(=O)O)c5)NC(=O)[C@@H]5C[C@@H](O)CN5C(=O)[C@H]([C@@H](C)O)NC4=O)cc3)no2)cc1` [MCF, Micafungin] (X1-[Orn(4R-OH,5R-OH)]T[Hyp][hTyr(3S-OH,4S-OH,3'-OSO3H)][Gln(3R-OH)][Pro(3S-OH,4S-Me)]; lactam 1-C) has an MIC80 [1] of 0.22 ± 0.02 µM, an MIC80 [2] of 0.19 ± 0.03 µM and an MIC80 ([3]; Saccharomyces cerevisiae, Table 2, strain AR, SD pH 6.8, 48 h, 30 °C, ± SD, read-out: MIC80) of 0.17 ± 0.03 µM. It also gave an MIC80 [4, 13] of 0.24 ± 0.02 µM, an MIC80 [5, 14] of 0.27 µM and an MIC80 [6, 15] of 0.21 ± 0.01 µM. It also gave an MIC80 [7, 16] of 0.28 ± 0.01 µM, an MIC80 [8] of 0.18 ± 0.02 µM and an MIC80 [9] of 0.17 ± 0.03 µM. For the same molecule, the MIC80 [10, 17] was 0.14 ± 0.01 µM.

With `CC[C@@H]([C@H](C)O)n1ncn(-c2ccc(N3CCN(c4ccc(OC[C@@H]5CO[C@@](Cn6cncn6)(c6ccc(F)cc6F)C5)cc4)CC3)cc2)c1=O` [PCZ, posaconazole] the MIC80 [1] was 0.1 ± 0.01 µM, the MIC80 [11] was 0.29 ± 0.04 µM and the MIC80 [2] was 0.21 ± 0.01 µM. For the same molecule, the MIC80 ([3]; Saccharomyces cerevisiae, 48 h, pH 6.8) was 0.19 ± 0.01 µM, the MIC80 ([3]; Table 2, strain AR, SD pH 6.8, 48 h, 30 °C, ± SD) was 0.19 ± 0.02 µM and the MIC80 [12] was 0.05 ± 0.017 µM. The MIC80 [4, 13] was 0.06 ± 0.01 µM, the MIC80 ([4]; Table 3, strain ARE Y121F) was 0.025 ± 0.003 µM and the “increase in susceptibility of strain T289A compared to strains ARE and ADΔΔ” value [5] was 40%. For the same molecule, the MIC80 [5, 14] was 0.06 µM, the MIC80 ([5]; Table 3, strain ARE T289A) was 0.043 ± 0.019 µM and the MIC80 [6, 15] was 0.11 ± 0.01 µM. The MIC80 ([6]; Table 3, strain ARE Y121F T289A) was 0.101 ± 0.017 µM, the MIC80 [7, 16] was 0.09 ± 0.02 µM and the MIC80 ([7]; Table 3, strain ARE I301T) was 0.055 ± 0.001 µM. It also gave an MIC80 [8] of 0.25 ± 0.03 µM, an MIC80 [9] of 0.17 ± 0.02 µM and an MIC80 [10, 17] of 0.1 ± 0.01 µM. For the same molecule, the MIC80 ([10]; Table 3) was 0.06 ± 0.037 µM, the “λpeak (type II difference spectrum)” value (AfCYP51A-6×His; 1 μM enzyme) was 423 nm and the “λtrough (type II difference spectrum)” value (AfCYP51A-6×His; 1 μM enzyme) was 395 nm. For the same molecule, the “ΔAmax (type II binding)” value (AfCYP51A-6×His; 1 μM enzyme, Hill equation) was 0.07, the “Hill Number” value (AfCYP51A-6×His; type II binding) was 1.35 and the Kd (AfCYP51A-6×His; [18]) was 1700 nM and 1720 nM. The “λtrough (type II difference spectrum)” value (AfCYP51B-6×His; 1 μM enzyme) was 388 nm, the “ΔAmax (type II binding)” value (AfCYP51B-6×His; 1 μM enzyme, Hill equation) was 0.10 and the “Hill Number” value (AfCYP51B-6×His; type II binding) was 1.41. For the same molecule, the Kd (AfCYP51B-6×His; [18]) was 2100 nM and 2150 nM.
